# Measured values as given in the NIST ThermoML archive (doi:10.1016/j.jct.2006.03.004).
# Numbers after ± are expanded uncertainties.
# Settings: Liquid
structure (smiles),measurement,setting,value
"FCC(F)(F)F [1,1,1,2-tetrafluoroethane]",vapor or sublimation pressure,282.55 K,404 ± 2.7 kPa
same,vapor or sublimation pressure,293.32 K,572.6 ± 3.7 kPa
same,vapor or sublimation pressure,303.24 K,773.3 ± 5 kPa
same,vapor or sublimation pressure,312.66 K,1002.2 ± 6.5 kPa
same,vapor or sublimation pressure,322.82 K,1304.9 ± 8.3 kPa
